One test has as its system pineal gland. The test can be described thus: In vivo pineal microdialysis with drug infusion through the dialysis membrane; on-line HPLC of melatonin and serotonin (5-HT) secretion. Further details: species or system rat. On the procedure:
Adult Sprague Dawley male rats (220-225 g) were house at 20-25° C. with lights on at 11 am (LD 14:10). Food and were available ad libitum throughout the experiment. Illumination was supplied by white fluorescent lamps (600 lux at cage level). Rats were placed in the LD cycles for at least 2 weeks before the start of surgery.
The animals were deeply anesthetized with a combination of Ketamine (10 mg/ml, 0.5 ml/100 g weight, i.p.) and Xylazine (2 mg/ml, 0.5 ml/100 g weight, i.p.). The animals' heads were shaved and positioned in a stereotaxic instrument. A longitudinal incision (approximately 2.5 cm) is made along the midline in the skin from anterior (level of the eyes) to posterior (base of the skull). The sagittal and lambdoid sutures were then exposed by scraping away the periosteum to the temporal muscles. […] The dura was exposed after grinding away the top bone, which was removed using iris forceps after making a cross cut with a scalpel blade (FIG. 1B). […] Bleeding was controlled with cotton wool pledget, or flushed with water and suctioned. Three stainless steel screws were placed nearby in the parietal and frontal bones to serve as anchors. After the animal's head was repositioned 30 degrees downward, the dura matter below the confluence of sinuses was then lifted 5 mm with a hook fixed to the stereotaxic frame (FIG. 1C). The dorsal cerebellum was then pressed downward with a glass blunt tube to expose the pineal gland. The tentorium cerebelli which covers the posterior surface of the pineal and connects to the confluence of the sinuses, was then carefully reflected to visualize the pineal with a micro sharp hook, while the bleeding around the pineal was flushed and suctioned. The pineal vein is visible in the midline of the pineal posterior surface (FIG. 1D) which divides the pineal gland into two parts and drains it to the confluence of the sinuses. The tip of the guide cannula (CMA Microdialysis, N. Chelmsford, Mass.) was then positioned adjacent to either side of the exposed pineal before the skull was closed with dental cement. The rats were allowed to recover for 24 hours before experimentation.
(§1) Pineal microdialysis was carried out as follows. Immediately before sampling, the rat was anesthetized with halothane briefly, the stylet (or dummy probe) was replaced with a microdialysis proble (CMA12, 20 KD cut off, membrane length 4 mm)(CMA Microdialysis, N. Chelmsford, Mass.) and fixed with plastic glue. The dialysis probe was continuously infused via the microbore PEEK tubing (0.65 mm OD, 0.12 mm ID) at a flow rate of 2 ul/min with artificial CSF (Harvard, Holliston, Mass.). Samples were collected at 10 minutes intervals via the PEEK tube into a 20 ul loop of Pollen 8 automatic injector (BAS, West Lafayette, Ind.), which was on-line with the HPLC system. The sample loop was set to be retained in the load position during the 10 minute cycles and was automatically switched to the injection positions briefly, after which the cycle was repeated. The rats were linked to the apparatus for dialysis through a quartz dual channel swivel (Harvard/Instech, Boston, Mass.) to prevent the tubing from entanglement. […]
The analytical condition for the simultaneous detection of 5-HT/NAS/melatonin was based on Drijffiout et al. (J. Neurochem. 61: 936-942 (1993)) with minor modifications. A Shimadzu pump (Shimadzu, Columbia, USA) was used in conjunction with a Shimadzu fluorescence detector (FD, excitation: 280 nm, emission: 345 nm). […]

For a further test, the system named is NAT. Put plainly: Pineal in situ hybridization for NAT RNA after drug infusion by microdialysis. The format is in vivo, rat. The method, then:
as §1, with “entanglement. All pharmacological agents with molecular weights less than […] were delivered to the pineal through the microdialysis tubing. All drugs were infused after dissolving in artificial CSF solution at final concentrations indicated and for the duration described in the figure legends.” for “entanglement.”

The mark [1] stands for this setting: ISO 1 uM infused into pineal for 2.5 hours during the day (14:30 to 17:00), days 7-10 of microdialysis, single rat.
Where [2] appears, read: dibutyryl cAMP 10 mM infused through the microdialysis tube during the day.

Structures are written as SMILES.

On to `CC(C)NCC(O)c1ccc(O)c(O)c1` (stereo not shown) [ISO, Isoprenaline], for which, in the test with pineal gland (setting [1]), the “effect on serotonin (5-HT) output as melatonin output increases” value is “decreases in a perfectly inverse manner”, the “time after ISO treatment at which melatonin reaches a maximum” value is 2 h, the “time after ISO withdrawal within which melatonin decreases” value is at most 1 h and the “time after infusion at which melatonin levels begin to increase” value was found to be 1 h. In addition, the “NAT RNA expression in pineal sections (in situ hybridization)” value with NAT (ISO 1 uM infused through dialysis membrane during the day, 12th day of microdialysis, n=5 rats) is given as “restricted to the region surrounding the probe membrane”.
Take `CCCC(=O)Nc1ncnc2c1ncn2[C@@H]1O[C@@H]2COP(=O)(O)O[C@H]2[C@H]1OC(=O)CCC` [dibutyryl-cAMP]: in the test on pineal gland (setting [2]), the melatonin production result was “activated”. Further, the “NAT gene induction in pineal sections (in situ hybridization)” value with NAT (setting [2]) was “NAT gene induction is detected”.

The values above are taken from patent publication US20050059977A1, “Monitoring circadian activity” (priority 2003, published 2005).
